Legend:
HCT 116 cell lines = experiment: Cell cycle analysis (PI, FACS); format: cell-based, Human; conditions: standard at 25 μM
Protocol: The cell cycle analysis was followed where 1 × 10^6 cells were seeded and cultured for 24 h in a 6-well plate containing 2 ml of the media. Cells were then treated with desired concentrations of the given samples that were prepared in media and further incubated for another 24 h. Cells were then harvested and centrifuged at 2000 rpm for 5 min at room temperature and the supernatant was discarded carefully retaining the cell pellet. Cell pellet was then washed by resuspending in 2 ml of 1XPBS. The washing was repeated another time under the same conditions. Further, the supernatant was discarded retaining the pellet. Cells were then fixed by resuspending in 300 µL of Sheath fluid followed by the addition of 1 ml of chilled 70% ethanol drop by drop gently with continuous shaking and one more mL of the same at once. The cells were then stored at 4 °C overnight. Post fixing, the cells were centrifuged at 2000 rpm for 5 min washed twice with 2 ml of cold 1XPBS and suspended in 450 µL of sheath fluid containing 0.05 mg/ml PI (Propidium iodide), 0.05 mg/ml RNase A and incubated for 15 min in the dark (Kasibhatla et al. [2006]).The percentage of cells in various stages of cell cycle both in the treated as well as un-treated populations was determined using FACS Caliber (BD Biosciences, San Jose, CA).

MCF-7 = experiment: MTT cytotoxicity assay on MCF-7; format: cell-based; conditions: Homo sapiens, MCF7, 24 h, read-out: Inhibition of cell proliferation, IC50, MCF-7
Protocol: (§1) The monolayer cell culture was trypsinized and the cell count was adjusted to 5.0 × 10^5 cells/ml using respective media containing 10% FBS. To each well of the 96-well microtiter plate, 100 µL of the diluted cell suspension (50,000cells/well) was added. After 24 h, when a partial monolayer was formed, the supernatant was flicked off, the monolayer was then washed once again with the medium and 100 µL of different test concentrations of test drugs were added on to the partial monolayer in microtiter plates. The plates were then incubated at 37 °C for 24 h in 5% CO2 atmosphere. After incubation, the test solutions in the wells were discarded and 100 µL of MTT (5 mg/10 ml of MTT in PBS) was added to each well. The plates were then incubated for 4 h at 37 °C in 5% CO2 atmosphere. The supernatant was then removed and 100 µL of DMSO was added and the plates were gently shaken to solubilize the formed formazan. The absorbance was measured using a microtiter plate reader at a wavelength of 590 nm. The percentage growth inhibition was thus calculated using the following formula and the concentration of the test drug required to inhibit the cell growth by 50% (IC50) values is generated from the dose–response curves for each one of the cell lines (Meerloo et al. [2011]).
(§2) The test compounds were screened for their in vitro cytotoxicity by MTT assay against two cancer cell lines, namely MCF-7, HCT-116 and normal epithelial kidney cells (Vero). Doxorubicin was used as a reference standard.

HCT 116 = experiment: MTT cytotoxicity assay on HCT 116; format: cell-based, Human; conditions: Homo sapiens, HCT-116, 24 h, read-out: Inhibition of cell proliferation, IC50, HCT 116
Protocol: as §1, §2

[1] = tested on: normal epithelial kidney cells (Vero); experiment: MTT cytotoxicity assay on Vero; format: cell-based; conditions: Chlorocebus sabaeus, Vero, 24 h, read-out: Inhibition of cell proliferation, IC50, Vero
Protocol: as §1, §2

HCT-116 cells = experiment: Apoptosis detection by propidium iodide / Annexin V-FITC; format: cell-based, Human; design: FACS analysis of apoptosis detection, Viable cells / FACS analysis of apoptosis detection, Early apoptotic / FACS analysis of apoptosis detection, Late apoptotic / FACS analysis of apoptosis detection, Necrotic: unit not given here; conditions: 20 μM
Protocol: The day before induction of apoptosis, 1 × 10^6cells per well were plated on a 6-well plate using respective media with 10% FBS and 1% PenStrep, incubated overnight at 37 °C at 5% CO2.The media was replaced with test solutions of different concentrations in the media containing 10% FBS. The treated cells were incubated for 24 h at normal culture conditions. The cells were further harvested and the well contents were completely transferred into the sterile FACS tubes. The cell contents were centrifuged at 2000 rpm for 5 min and the supernatant was discarded. After centrifugation, the cells were washed twice with cold PBS and then resuspended in 1 ml of binding buffer at a concentration of 1× 10^6 cells/ml. […] of the cell suspension (5× 10^5 cells) were then transferred into a fresh FACS tube (Vermes et al. [1995]). Further, cells were gently mixed with […] of propidium iodide and […] of Annexin V before being incubated for 20 minutes at room temperature in the dark. The cells were immediately analyzed by flow cytometer within a duration of an hour.

[2] = ABTS.+ radical scavenging assay
Protocol: The assay was performed in a 96-well plate by serial dilution method. A 2 mM ABTS^.+ working solution was prepared in a phosphate buffer (Zheleva-Dimitrova et al [2010]).To this, 200 μL of aqueous potassium per sulfate (70 mM) solution was added and the solution was incubated for 24 h in the dark at room temperature to develop a blue-green color. To 30 μL of ABTS^.+ working solution, 50 μL of different concentrations (3.9–1000 μM) of the test sample solution and 170 μL of phosphate buffer (pH-7.4) were added in a well. The plate was then incubated in the dark at room temperature for 10 min. Then absorbance was measured at 690 nm using Elisa reader. Quercetin and ascorbic acid were used as standards. The percentage scavenging of ABTS^.+ was calculated using the formula, (Control Absorbance–Test Absorbance)*100/(Control Absorbance) and the anti-oxidant activity was expressed in terms of IC50 value.

[3] = DPPH. free radical scavenging assay
Protocol: DPPH. assay was performed using 96-well plate by serial dilution method. The dilution of methanolic stock solution of the test compounds and standard anti-oxidants was carried out to obtain concentration in the range of 3.9–1000 µM. Quercetin and ascorbic acid were used as standards. To a 100 μL of this solution, 100 μL of 200 µM DPPH^. in methanolic solution was added. The experiment was done in triplicate and the plate was then incubated for 30 min in the dark and later the absorbance was measured at 517 nm using Elisa reader. The percentage DPPH^. Scavenging was calculated using the formula, (Control Absorbance–Test Absorbance)*100/(Control Absorbance). The anti-oxidant activity of the test compounds was expressed in terms of concentration required for 50 percentage inhibition (IC50) (Collins [2005]).

[4] = tested on: MCF-7 and HCT 116 cell lines; experiment: MTT cytotoxicity, IC50 range stated over MCF-7 and HCT 116; format: cell-based; conditions: range over both cell lines; read-out: Cytotoxic activity IC50 range against MCF 7 and HCT 116
Protocol: as §1, with “[2011]). […]” for “[2011]).”

CDK2/Cyclin A = CDK2/Cyclin A (Homo sapiens, UniProt P24941); experiment: CDK2/cyclin A inhibitory assay, Z'-LYTE FRET kinase assay; format: biochemical; conditions: concentration of 100 micro molar; 1000 ng/ml kinase, 1000 µM ATP
Excerpt: Z’-LYTE® technology involves homogeneous assay design based on FRET and is a universal platform for both screening as well as profiling protein kinases. The assay uses a peptide substrate labeled with two different fluorophores, coumarin donor and fluorescein acceptor on each end. These two fluorophores make up a FRET pair, which allows the transfer of energy when both are present on the same molecule. The initial kinase reaction transfers the ϒ-phosphate of ATP to a tyrosine or serine/threonine residue on the substrate. In a secondary reaction, referred to as the development reaction, a site-specific protease recognizes and cleaves only non-phosphorylated peptide, while phosphorylated substrate remains uncleaved. […] Upon excitation of Coumarin at 400 nm, the FRET signal is measured as a ratio between the Coumarin donor emission at 445–460 nm and the fluorescein acceptor emission at 520–535 nm(Lebakken et al. [2007]).
Initial ten-fold and two-fold dilutions of Kinase and ATP concentrations were used to choose the optimal Kinase and ATP concentration based on the % Phosphorylation.
The assay was carried out according to the kit instructions (384 well format). Briefly, 5X kinase buffer [250 mM HEPES (pH 7.5), 50 mM MgCl2, 5 mM EGTA, 0.05% BRIJ-35] was diluted to 1X using distilled water. The phosphor peptide positive control (Z’-LYTE® Tyr 4 phospho-peptide) and the non-phosphorylated negative control (Z’-LYTE® Tyr 4 peptide) were then diluted to 1:500 with 1× kinase buffer to 2 μM. […] Working development solution was then made by diluting 12 μL of the provided stock solution with 388 μL of the provided development buffer. Aliquots (20 μL) of each peptide mixture were then added to the wells of a Corning 3914 solid white microplate in replicates of 8. The development reaction was initiated by the addition of 10 μL of working development-solution to all the wells. Further, the plates were allowed to incubate at room temperature for 60 min. Reactions were then stopped by the addition of 10 μL of stop solution (Jia et al. [2008]).
Reactions were quantitated using a Tecan Robotic Microplate Reader. Reader control, blank subtraction, ratio metric calculations and finally graph plotting were carried out using Gen5™ Data Analysis Software.
The CDK2/Cyclin A assay was carried out as per the manufacturer’s instruction using suitable controls and standard.
The inhibitory assay was carried out using the stock of 10 mM in DMSO. Samples were further serially diluted to obtain concentrations of 100 μM. The concentrations were chosen based on the IC50 values obtained in the MTT assay. A total of 23 analogues were selected for the assay based on their antiproliferative activity. Further, selected compounds were screened and tested against the target CDK2/Cyclin A, and their % phosphorylation and % inhibition were recorded.

Row | Structure (SMILES) | percentage cell population G2/M phase (HCT 116 cell lines) | percentage cell population GO/G1 phase (HCT 116 cell lines) | percentage cell population S phase (HCT 116 cell lines) | IC50 (MCF-7) [µM] | IC50 (HCT 116) [µM] | IC50 [1] [µM] | FACS analysis of apoptosis detection, Early apoptotic (HCT-116 cells) | FACS analysis of apoptosis detection, Late apoptotic (HCT-116 cells) | FACS analysis of apoptosis detection, Necrotic (HCT-116 cells) | FACS analysis of apoptosis detection, Viable cells (HCT-116 cells) | apoptotic index (HCT-116 cells) [%] | IC50 [2] [µM] | IC50 [3] [µM] | IC50 [4] [µM] | % inhibition on CDK2/cyclin A (CDK2/Cyclin A) [%]
1 | COc1cc2c(c(OC)c1OC)-c1ccc(OC)c(=O)cc1[C@@H](NC(C)=O)CC2 [Colchicine, reference compound] | 43.78 | 47.39 | 8.61 |  |  |  |  |  |  |  |  |  |  |  | 
2 | COc1cccc2c1C(=O)c1c(O)c3c(c(O)c1C2=O)C[C@@](O)(C(=O)CO)C[C@@H]3O[C@H]1C[C@H](N)[C@H](O)[C@H](C)O1 [Doxorubicin, reference compound] |  |  |  | 0.68 | 8.11 | 165 | 4.44 | 26.61 | 19.86 | 49.09 | 26.61 |  |  |  | 
3 | COc1cc(OC)c(C2=CCN(C)CC2)c2c1C(=O)/C(=C/c1ccccc1Br)O2 [NMA2] |  |  |  | 26.8 | 34.9 | 154 |  |  |  |  |  | 66.5 ± 2.02 | 83.2 ± 6.42 | 21.2 to 44 | 35.350
